Experimental findings from patent US20130324555A1, “Method of use of pharmaceutical formulations for the treatment of apicomplexan diseases in animals” (priority 2012, published 2013) are described below.

For one series, the system named is T. gondii tachyzoites. The series can be described thus: In vitro inhibition of T. gondii tachyzoites (RH-YFP fluorescence / [3H]-uracil incorporation). Conditions: for MIC50 / MIC90: Toxoplasma gondii, T. gondii tachyzoites in HFF cells; for activity against T. gondii tachyzoites, in words: only MIC50≦1 μM considered active. Format: cell-based. The procedure:
Determination of the anti-apicomplexan activity of Compounds of Formula I may be determined by one skilled in the art. Parasite proliferation was monitored by using stably transfected type I RH-YFP parasites, which constitutively express Yellow Florescent Protein. Proliferation also was tested using a [^3H]-Uracil incorporation assay, as Uracil is incorporated into nucleic acids of T. gondii tachyzoites, but not mammalian cells, as they divide. Complimentary challenge assays ensured that the observed fluorescence data was due to parasite inhibition and not to quenched fluorescence. Pyrimethamine and sulfadiazine were used as positive controls, and DMSO at a concentration of 0.1% was used as the negative control. Because T. gondii is an obligate parasite, compounds that are toxic to host cells will appear to inhibit parasite growth. Therefore, all test compounds were simultaneously evaluated for efficacy and toxicity against human cells.
Test compounds were dissolved in DMSO to make a 10 mM solution, and subsequently diluted with IMDM-C to the concentrations used in bioassay. In the in vitro experiments DMSO concentration was not greater than 0.1% unless otherwise specified. RH-YFP parasites, which stably express Yellow Florescent Protein, were used. Tachyzoites were extracted from HFF cells by double passage through a 25-gauge needle, centrifuged for 15 minutes at 1500 RPM, and resuspended in IMDM-C. Confluent monolayers of HFF cells were infected with parasites in 96-well plates (Falcon 96 Optilux Flat-bottom) with 3,500 parasites in 100 uL per well. One hour after inoculation, test compounds and control media were added for a final volume of 200 uL per well. Parasite proliferation was assessed using [^3H]-Uracil incorporation or YFP Fluorescence assay.
Human Foreskin Fibroblast (HFF) cells were maintained in confluent monolayers in Iscoves's Modified Dulbecco's Medium supplemented with 10% fetal bovine serum, 1% GlutaMAX and 1% penicillin-streptomycin-fungizone (IMDM-C). T. gondii tachyzoites were cultivated in HFF monolayers. Parasites and cells were maintained at 33° C. or 37° C. and 5% CO2. The strains of parasite used in this study include RH, RH-YFP, and Prugnaud FLUC (Type 2 parasites stably transfected with luciferase), Me49 strain, and TgGoatUS4 isolate.
25 μL of 0.1 mCi/mL*^3H]-Uracil or [^3H]-Thymidine was added to each well 24 hours before reading plates. At harvesting, contents of the wells were transferred onto a 96-well UniFilter GF/C filter plates using a Filtermate 196 cell harvester (Packard). [^3H]-Uracil and [^3H]-Thymidine incorporation was measured using a Microplate Scintillation Luminescence Counter (Packard).
72 hours after initiation of the in vitro challenge assay, parasite proliferation was assessed by reading fluorescence of YFP parasites with a Synergy H4 Hybrid Reader (BioTek) and Gen5 1.10 software, using a bottom optics positions, excitation wavelength of 514 nm, and emission wavelength of 540 nm.

The nature of series [1]: Hydrolytic stability of acylated derivatives (data not shown). Format: physicochemical. Here is the method:
A cursory study of the effect of capping the phenol of 4 via acylation was undertaken. The acylated derivatives 7 were prepared and tested. […] The intrinsic activity of intact 7a cannot yet be ruled out, and this interesting phenomenon is currently under study.

Series [2] has as its system P. falciparum D6 (CDC/Sierra Leone). The series can be described thus: Malaria SYBR Green 1-Based Fluorescence (MSF) Assay, strain D6. Format: cell-based. Conditions: Plasmodium falciparum, D6, read-out: D6 IC50. The procedure:
Compound activity against P. falciparum, the causative agent of malaria, was assessed using the Malaria SYBR Green 1-Based Fluorescence (MSF) Assay. This microtiter plate drug sensitivity assay uses the presence of malarial DNA as a measure of parasitic proliferation. The assay is a microtiter plate drug sensitivity assay that uses the presence of malarial DNA as a measure of parasitic proliferation in the presence of antimalarial drugs or experimental compounds based on modifications of previously described methods (Plouffe et al., Proc Natl Acad Sci USA. 2008, 105, 9059-9064), (Johnson et al., Antimicrob. Agents Chemother. 2005, 49, 3463-3467).
Selected compounds were examined for activity against two strains of P. falciparum: D6 (CDC/Sierra Leone), a drug-sensitive and readily killed by chloroquine, and TM90-C235, a multi-drug resistant strain resistant to chloroquine.
D6 (CDC/Sierra Leone) and TM90-C235 (WRAIR, Thailand) laboratory strains of P. falciparum were used for each drug sensitivity assessment. The parasite strains were maintained continuously in long-term cultures as previously described in Johnson et al, and P. falciparum strains in late-ring or early-trophozoite stages were cultured in predosed 384-well microtiter drug assay plates in 38 μl culture volume per well at a starting parasitemia of 0.3% and a hematocrit of 2%. Pre-dosed, sterile, 384 well black optical bottom microtiter drug plates for use in the MSF assay were produced using a Tecan EVO Freedom Liquid Handling System (Tecan US, Durham, N.C.). Dose response plates were produced at a final concentration ranging from 0.5-10000 ng/ml in quadruplicate (twelve two-fold serial dilutions of each test compound or chloroquine control in DMSO. Each run was validated by a batch control plate with chloroquine (Sigma-Aldrich Co., Catalog #C6628) at a final concentration of 2000 ng/ml. The cultures were incubated for 72 hours at 37° C., 5% CO2, 5% O2 and 90% N2. Lysis buffer (38 μl per well), consisting of 20 mM Tris HCl, 5 mM EDTA, 1.6% Triton X, 0.016% saponin, and SYBR green I dye at a 20× concentration (Invitrogen, Catalog #S-7567) was then added to the assay plates utilizing the Tecan EVO Freedom system for a final SYBR Green concentration of 10×. Plates were incubated in the dark at room temperature in the dark for 24 hours.
Compound activity was assessed by examining for the relative fluorescence units (RFU) per well using the Tecan Genios Plus (Tecan US, Inc., Durham, N.C.). GraphPad Prism (GraphPad Software Inc., San Diego, Calif.) using the nonlinear regression (sigmoidal dose-response/variable slope) equation was used to determine IC50 values.

≈ marks a conversion by molar mass, not a printed value.

By MIC50 is commonly meant an inhibitory concentration at the 50% level, which refers to growth in some studies and to a panel of isolates in others. The term MIC90 denotes the lowest concentration that inhibits either 90% of growth or 90% of the strains tested, depending on the study. Take `Cc1cccc(NC(=O)c2cc(Cl)ccc2O)c1` [Compound 3a]: in the series with T. gondii tachyzoites, the MIC50 is > 1 µM and the MIC90 is > 1 µM.

For the compound `COC(=O)[C@@H]1CCCC1C(=O)Oc1ccc(Cl)cc1C(=O)Nc1ccc([N+](=O)[O-])cc1Cl` (stereo partly drawn) [Compound 7b], in the series on T. gondii tachyzoites, the MIC50 is > 1 µM; the MIC90 is > 1 µM; the “activity against T. gondii tachyzoites, in words” value (shortened to “activity”) is “devoid of activity”. In series [1], the stability against hydrolysis result is reported as “much more stable against hydrolysis”.

For `CCOc1cccc(NC(=O)c2cc(Cl)ccc2O)c1` [Compound 3u], in the series on T. gondii tachyzoites, the MIC50 is > 1 µM and the MIC90 was > 1 µM.

Take `Nc1ccc(NC(=O)c2cc(Cl)ccc2O)c(Cl)c1` [Compound 5]: in the series with T. gondii tachyzoites, the MIC50 was > 1 µM; the MIC90 was > 1 µM; the “activity” value is listed as “all activity was lost”.

Take `CC(C)Oc1cccc(NC(=O)c2cc(Cl)ccc2O)c1` [Compound 3w]: in the series on T. gondii tachyzoites, the MIC50 is > 1 µM and the MIC90 is > 1 µM.

For `O=C(Nc1ccc([N+](=O)[O-])cc1Cl)c1cc(Cl)ccc1OC(=O)N1CCOCC1` [Compound 7c], in the series with T. gondii tachyzoites, the MIC50 was > 1 µM; the MIC90 was > 1 µM; the “activity” value is “devoid of activity”. Moreover, the stability against hydrolysis entry in series [1] was “much more stable against hydrolysis”.

For `O=C(Nc1cccc(Oc2ccccc2)c1)c1cc(Cl)ccc1O` [Compound 3y], in the series on T. gondii tachyzoites, the MIC50 was > 1 µM and the MIC90 is > 1 µM.

On to `COc1cc(C)cc(NC(=O)c2cc(Cl)ccc2O)c1` [Compound 3x], for which, in the series with T. gondii tachyzoites, the MIC50 was > 1 µM and the MIC90 was > 1 µM.

As for `O=C(Nc1cc(F)cc(F)c1)c1cc(Cl)ccc1O` [Compound 3o], in the series on T. gondii tachyzoites, the MIC50 is > 1 µM; the MIC90 is > 1 µM; the “activity” value was “inactive”.

On to `Cc1cc(C)cc(NC(=O)c2cc(Cl)ccc2O)c1` [Compound 3s], for which, in the series with T. gondii tachyzoites, the MIC50 was > 1 µM and the MIC90 is > 1 µM.

In the case of `O=C(Nc1ccc([N+](=O)[O-])cc1Cl)c1ccccc1O` [Compound 3k], in the series on T. gondii tachyzoites, the MIC50 is > 1 µM; the MIC90 is > 1 µM; the “activity” value was “eliminated activity altogether”.

In the case of `O=C(Nc1ccc(Cl)cc1F)c1cc(Cl)ccc1O` [Compound 3p, 5-chloro-N-(4-chloro-2-fluorophenyl)-2-hydroxybenzamide], the “activity” value with T. gondii tachyzoites is recorded as “removed all activity”.

Turning to `COc1ccc(NC(=O)c2cc(Cl)ccc2O)c(OC)c1OC` [Compound 3q], in the series with T. gondii tachyzoites, the MIC50 was > 1 µM; the MIC90 is > 1 µM; the “activity” value was “devoid of activity”.

On to `CN1CCN(C(=O)Oc2ccc(Cl)cc2C(=O)Nc2ccc([N+](=O)[O-])cc2Cl)CC1` [Compound 7d, 4-chloro-2-((2-chloro-4-nitrophenyl)carbamoyl)phenyl 4-methylpiperazine-1-carboxylate], for which the “activity” value with T. gondii tachyzoites is recorded as “devoid of activity”. The stability against hydrolysis result in series [1] was “much more stable against hydrolysis”.

In the case of `C#Cc1cc(NC(=O)c2cc(Cl)ccc2O)ccc1F` [Compound 3t], in the series with T. gondii tachyzoites, the MIC50 is > 1 µM; the MIC90 was > 1 µM; the “activity” value is “inactive”.

Turning to `C#Cc1cccc(NC(=O)c2cc(Cl)ccc2O)c1` [Compound 3d], in the series on T. gondii tachyzoites, the MIC50 is > 1 µM and the MIC90 was > 1 µM.

Turning to `O=C(Nc1cccc(OC(F)F)c1)c1cc(Cl)ccc1O` [Compound 3z], in the series on T. gondii tachyzoites, the MIC50 is > 1 µM and the MIC90 is > 1 µM.

`CCOc1cccc(NC(=O)c2cc(F)ccc2O)c1` [Compound 3ac]: in the series on T. gondii tachyzoites, the MIC50 is > 1 µM; the MIC90 was > 1 µM; the “activity” value was “no activity”.

Consider `COc1ccc(NC(=O)c2cc(Cl)ccc2O)cc1OC` [Compound 3v], for which, in the series on T. gondii tachyzoites, the MIC50 was > 1 µM; the MIC90 is > 1 µM; the “activity” value is recorded as “devoid of activity”.

For `N#Cc1cccc(NC(=O)c2cc(Cl)ccc2O)c1` [Compound 3g], in the series with T. gondii tachyzoites, the MIC50 is > 1 µM and the MIC90 is > 1 µM.

With `COc1cccc(NC(=O)c2cc(F)ccc2O)c1` [Compound 10b], in the series with T. gondii tachyzoites, the MIC50 was > 1 µM; the MIC90 was > 1 µM; the “activity” value was “inactive”.

Consider `O=C(Nc1cccc(Cl)c1)c1cc(I)cc(I)c1O` [Compound 3aa], for which, in the series with T. gondii tachyzoites, the MIC50 is > 1 µM; the MIC90 was > 1 µM; the “activity” value was “no activity”.

Regarding `Cc1cccc(NC(=O)c2cc(F)ccc2O)c1` [Compound 10a], in the series with T. gondii tachyzoites, the MIC50 was > 1 µM; the MIC90 was > 1 µM; the “activity” value is “inactive”.

In general, IC50 refers to the concentration needed to halve the response being measured. Regarding `CCN(CC)CCCC(C)Nc1ccnc2cc(Cl)ccc12` (stereo not drawn) [Chloroquine, reference compound], the concentration for half-maximal inhibition (IC50) in series [2] was 3.8 ng/mL (≈ 0.0119 µM).

Consider `O=C(Nc1ccc2c(c1)OCCO2)c1cc(Cl)ccc1O` [Compound 3ab], for which, in the series with T. gondii tachyzoites, the MIC50 was > 1 µM; the MIC90 was > 1 µM; the “activity” value is “devoid of activity”.
